According to patent publication US20100130619A1, “PHARMACEUTICAL COMPOSITION FOR PARENTERAL ADMINISTRATION OF IDEBENONE” (priority 2008, published 2010):

Key:
Solubility of Idebenone = type: physicochemical
Source text: The low water solubility of Idebenone makes the task of producing an injectable form very difficult. Use of water miscible solvents (alcohol, propylene glycol, liquid PEG, N-methylpyrrolidone, etc.), where Idebenone dissolves well, is inappropriate due to the immediate precipitation of the drug upon contact with physiological fluids or a water phase. An inclusion complex of Idebenone with cyclodextrin has been described, but it is water dispersible, not soluble and not suitable for injection. The solubility of Idebenone in fixed oils (soy, corn, almond, etc.) is low; drug precipitates from such emulsions during storage, limiting their use for the preparation of injectable forms of […].

Friedreich's Ataxia = settings: cited from earlier work
[1] = oral; cited from earlier work
cerebrovascular disease = settings: nine patients, 90 mg daily; cited from earlier work
[2] = test system: learning and memory disturbances; settings: rats; cited from earlier work
[3] = test system: cultured cortical neurons; settings: cited from earlier work
[4] = test system: microsomal lipid peroxidation; settings: cited from earlier work

For `COC1=C(OC)C(=O)C(CCCCCCCCCCO)=C(C)C1=O` [Idebenone, 2,3-dimethoxy-5-methyl-6-(10-hydroxydecyl)-1,4-benzoquinone], the “solubility in fixed oils” value (Solubility of Idebenone; fixed oils (soy, corn, almond, etc.)) is listed as “low”, the water solubility (Solubility of Idebenone; water) is listed as “low” and the “marker of oxidative DNA damage” value (Friedreich's Ataxia; oral 5 mg/kg daily for 8 weeks) is listed as “significantly decreased”. For the same molecule, the left ventricular enlargement (Friedreich's Ataxia; three patients, 5 mg/kg daily for 4-9 months) was “reduction of left ventricular enlargement”, the bioavailability [1] was “relatively high” and the “EEG and clinical symptoms” value (cerebrovascular disease) was “improvements in EEG and clinical symptoms”. For the same molecule, the “learning and memory disturbances” value [2] was “ameliorates learning and memory disturbances”, the “rescue on delayed application” value ([3]; applied 30 minutes after the NMDA pulse) was “rescues cortical neurons” and the “protection against necrotic degeneration” value ([3]; cultured cortical neurons) was “protects cultured cortical neurons against necrotic degeneration”. The free radical scavenging ([4]; cell cultures) was “scavenges a variety of free radical species” and the microsomal lipid peroxidation ([4]; induced by ADP-iron complexes or organic hydroperoxides) was “inhibits microsomal lipid peroxidation”.
